“And” between values parts separate entries of the source, which are not always exact repeats. Equal values may be shown once. The source made the active and inactive calls.
Assays:
[1] = viability of uninfected HEp-2 cells – cell-based, HTS, cytotoxicity control for RSV inhibitor project, dose response (AID 2410); type: functional; settings: human respiratory syncytial virus
Bcl-2-related protein A1 [2] = biological target: T1, Bcl-2-related protein A1 (Mus musculus, UniProt Q07440); test: small-molecule antagonists of Bfl-1/BH3 interaction – biochemical, TR-FRET, mouse Bfl-1, confirmation (AID 621);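 also: TR-FRET binding of GST-Bfl-1 to FITC-labelled Bid peptide via terbium antibody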
T1 sequence (Q07440 whole entry): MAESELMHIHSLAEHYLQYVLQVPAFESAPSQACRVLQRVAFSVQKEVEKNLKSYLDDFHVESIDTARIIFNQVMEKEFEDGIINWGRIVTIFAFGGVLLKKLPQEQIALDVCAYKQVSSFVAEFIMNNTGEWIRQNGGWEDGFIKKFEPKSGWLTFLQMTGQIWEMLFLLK

Bcl-2-related protein A1 [3] = biological target: T1, Bcl-2-related protein A1; test: Bfl-1 binding inhibitors, SAR follow-up, biochemical, fluorescence polarization (AID 1070)
[4] = biological target: Cyclin-dependent kinase 5/CDK5 activator 1 (Homo sapiens, UniProt Q00535); test: blockade of human CDK5 activity – biochemical, cherry-picked samples, set 2, dose response (AID 504545)
Sequence of Cyclin-dependent kinase 5/CDK5 activator 1 (Q00535 whole entry): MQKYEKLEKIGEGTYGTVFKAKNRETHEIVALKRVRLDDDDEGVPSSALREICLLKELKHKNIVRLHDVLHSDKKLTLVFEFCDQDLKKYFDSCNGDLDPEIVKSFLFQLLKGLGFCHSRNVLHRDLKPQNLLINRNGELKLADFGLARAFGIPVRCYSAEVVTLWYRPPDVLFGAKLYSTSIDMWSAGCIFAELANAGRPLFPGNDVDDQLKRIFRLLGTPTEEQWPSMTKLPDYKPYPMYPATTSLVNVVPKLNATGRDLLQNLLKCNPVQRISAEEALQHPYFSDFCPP
Sequence of Cyclin-dependent kinase 5/CDK5 activator 1 (Q15078 whole entry, further chain): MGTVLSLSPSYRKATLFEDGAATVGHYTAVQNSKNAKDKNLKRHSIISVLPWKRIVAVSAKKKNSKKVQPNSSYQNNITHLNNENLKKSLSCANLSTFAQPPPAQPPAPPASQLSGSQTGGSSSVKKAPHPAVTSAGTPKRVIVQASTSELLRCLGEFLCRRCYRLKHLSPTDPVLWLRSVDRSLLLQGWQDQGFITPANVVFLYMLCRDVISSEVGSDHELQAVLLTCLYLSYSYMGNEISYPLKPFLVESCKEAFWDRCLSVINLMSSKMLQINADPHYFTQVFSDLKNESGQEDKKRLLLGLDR

[5] = biological target: Heat shock protein HSP 90-alpha (Homo sapiens, UniProt P07900); type: functional, organism-based
[6] = M. tuberculosis H37Rv growth inhibitors, H37Rv strain (AID 1626); type: functional
cells = type: functional
[7] = Luminescence Cell-Based Dose Confirmation HTS to Identify Activators of 5'UTR Stem-Loop Driven Alpha-Synuclein mRNA Translation in H4 Neuroglioblastoma Cells. [Related pubchem assays: 1829 (Project Summary), 1814 (Primary HTS)]; type: functional
[8] = Luminescence Cell-Based Dose Response HTS to Identify Activators of Luciferase Translation or Activity in H4 […] Cells. [Related pubchem assays: 1829 (Project Summary), 1814 (Primary HTS)]; type: functional
H4 = test: Luminescence Cell-Based Dose Response HTS to Identify Activators of 5'UTR Stem-Loop Driven Prion Protein mRNA Translation in H4 Neuroglioblastoma Cells. [Related pubchem assays: 1829 (Project Summary), 1814 (Primary HTS)]; type: functional; settings: Homo sapiens
[9] = biological target: T2, Mannose-6-phosphate isomerase (Homo sapiens, UniProt P34949); test: MPI enzyme activity inhibition – biochemical, fluorescence intensity, coupled assay, primary screen (AID 1209)
T2 sequence (P34949 whole entry): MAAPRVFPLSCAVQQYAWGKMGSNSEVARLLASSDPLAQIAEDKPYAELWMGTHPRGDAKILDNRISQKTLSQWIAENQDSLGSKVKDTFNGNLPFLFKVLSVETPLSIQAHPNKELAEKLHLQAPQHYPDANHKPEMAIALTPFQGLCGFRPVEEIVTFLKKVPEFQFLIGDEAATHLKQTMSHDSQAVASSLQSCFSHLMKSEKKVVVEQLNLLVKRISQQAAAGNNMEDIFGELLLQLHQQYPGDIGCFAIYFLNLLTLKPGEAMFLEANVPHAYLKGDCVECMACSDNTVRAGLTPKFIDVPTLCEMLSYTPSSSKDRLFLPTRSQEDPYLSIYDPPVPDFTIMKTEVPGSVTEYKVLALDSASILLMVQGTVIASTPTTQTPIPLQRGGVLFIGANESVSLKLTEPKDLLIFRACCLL

[10] = biological target: T2, Mannose-6-phosphate isomerase; test: MPI inhibition at elevated mannose 6-phosphate – biochemical, fluorescence intensity, high mannose 6-phosphate, primary screen (AID 1220)
Heat shock protein HSP90 = Heat shock protein HSP90 (Homo sapiens, UniProt P07900+P08238); test: Hsp90 blockade concentration-response – dose response (AID 712); type: functional
[11] = biological target: Protein-tyrosine kinase 2-beta (Homo sapiens, UniProt Q14289);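 also: potency of inhibitors of PYK2 kinase phosphorylation of poly-GT substrate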
Sequence of Protein-tyrosine kinase 2-beta (Q14289 whole entry): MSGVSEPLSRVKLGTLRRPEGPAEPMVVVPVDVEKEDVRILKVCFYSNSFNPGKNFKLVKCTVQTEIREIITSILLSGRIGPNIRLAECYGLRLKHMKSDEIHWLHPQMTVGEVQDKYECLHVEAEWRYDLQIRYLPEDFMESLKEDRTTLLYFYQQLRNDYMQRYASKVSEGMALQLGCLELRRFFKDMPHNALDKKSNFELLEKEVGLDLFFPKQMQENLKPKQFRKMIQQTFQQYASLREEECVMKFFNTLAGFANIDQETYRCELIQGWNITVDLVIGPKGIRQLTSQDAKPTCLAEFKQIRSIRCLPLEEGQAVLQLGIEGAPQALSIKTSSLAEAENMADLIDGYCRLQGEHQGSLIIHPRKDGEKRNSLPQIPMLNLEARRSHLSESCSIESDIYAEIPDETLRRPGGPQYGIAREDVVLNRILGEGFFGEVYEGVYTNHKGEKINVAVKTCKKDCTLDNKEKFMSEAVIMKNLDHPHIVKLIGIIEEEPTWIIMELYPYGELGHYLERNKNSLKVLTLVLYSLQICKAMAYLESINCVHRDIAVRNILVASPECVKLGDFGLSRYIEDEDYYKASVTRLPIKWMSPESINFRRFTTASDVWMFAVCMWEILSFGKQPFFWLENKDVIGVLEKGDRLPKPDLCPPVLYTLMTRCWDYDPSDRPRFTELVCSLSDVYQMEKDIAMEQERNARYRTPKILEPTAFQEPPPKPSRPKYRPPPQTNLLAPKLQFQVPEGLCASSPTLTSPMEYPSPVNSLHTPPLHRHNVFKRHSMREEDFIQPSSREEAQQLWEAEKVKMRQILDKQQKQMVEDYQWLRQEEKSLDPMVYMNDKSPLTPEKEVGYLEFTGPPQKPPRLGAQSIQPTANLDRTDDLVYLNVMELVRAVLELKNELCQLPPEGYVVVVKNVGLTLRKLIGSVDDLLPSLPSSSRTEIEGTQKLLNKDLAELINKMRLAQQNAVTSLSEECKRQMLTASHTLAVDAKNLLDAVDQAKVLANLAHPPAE

[12] = biological target: Voltage-gated inwardly rectifying potassium channel KCNH2 (Homo sapiens, UniProt Q12809); settings: Potency;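 also: confirmatory quantitative high-throughput screen measuring inhibition of hERG channel activity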
Sequence of Voltage-gated inwardly rectifying potassium channel KCNH2 (Q12809 whole entry, the tested form may be a part): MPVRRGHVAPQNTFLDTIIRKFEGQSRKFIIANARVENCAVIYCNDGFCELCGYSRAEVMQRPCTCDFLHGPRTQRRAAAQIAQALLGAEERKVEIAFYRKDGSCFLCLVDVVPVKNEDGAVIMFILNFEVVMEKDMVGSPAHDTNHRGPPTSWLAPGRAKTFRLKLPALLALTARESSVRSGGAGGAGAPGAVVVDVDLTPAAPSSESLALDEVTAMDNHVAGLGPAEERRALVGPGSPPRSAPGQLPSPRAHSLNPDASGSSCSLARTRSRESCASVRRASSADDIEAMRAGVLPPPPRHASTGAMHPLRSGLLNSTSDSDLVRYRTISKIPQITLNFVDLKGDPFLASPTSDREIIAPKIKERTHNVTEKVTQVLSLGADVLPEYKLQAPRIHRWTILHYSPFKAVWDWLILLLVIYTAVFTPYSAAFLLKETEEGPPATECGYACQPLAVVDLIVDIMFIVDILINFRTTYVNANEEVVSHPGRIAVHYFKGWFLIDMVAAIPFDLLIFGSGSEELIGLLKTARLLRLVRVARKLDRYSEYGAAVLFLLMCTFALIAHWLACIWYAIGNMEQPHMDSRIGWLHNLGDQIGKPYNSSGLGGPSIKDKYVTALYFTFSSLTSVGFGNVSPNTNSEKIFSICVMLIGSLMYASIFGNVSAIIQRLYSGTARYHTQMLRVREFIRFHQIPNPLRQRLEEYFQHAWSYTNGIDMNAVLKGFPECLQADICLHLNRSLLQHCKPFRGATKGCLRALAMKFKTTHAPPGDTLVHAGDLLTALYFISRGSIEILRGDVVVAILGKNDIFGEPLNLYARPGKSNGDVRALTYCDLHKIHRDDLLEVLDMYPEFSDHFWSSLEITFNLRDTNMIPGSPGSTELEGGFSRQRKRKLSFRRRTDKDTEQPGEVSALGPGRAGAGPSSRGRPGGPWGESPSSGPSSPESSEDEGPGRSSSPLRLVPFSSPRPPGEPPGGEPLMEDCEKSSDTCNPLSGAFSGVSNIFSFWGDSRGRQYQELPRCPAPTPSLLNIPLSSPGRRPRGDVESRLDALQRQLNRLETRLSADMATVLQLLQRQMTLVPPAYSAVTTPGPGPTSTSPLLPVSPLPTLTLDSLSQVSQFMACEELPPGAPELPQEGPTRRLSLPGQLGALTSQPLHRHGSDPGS

Estrogen receptor = biological target: T3, Estrogen receptor (Homo sapiens, UniProt P03372); test: ERα coactivator recruitment enhancers – biochemical, TR-FRET, ERα LBD, dose response (AID 737)
T3 sequence (P03372 whole entry): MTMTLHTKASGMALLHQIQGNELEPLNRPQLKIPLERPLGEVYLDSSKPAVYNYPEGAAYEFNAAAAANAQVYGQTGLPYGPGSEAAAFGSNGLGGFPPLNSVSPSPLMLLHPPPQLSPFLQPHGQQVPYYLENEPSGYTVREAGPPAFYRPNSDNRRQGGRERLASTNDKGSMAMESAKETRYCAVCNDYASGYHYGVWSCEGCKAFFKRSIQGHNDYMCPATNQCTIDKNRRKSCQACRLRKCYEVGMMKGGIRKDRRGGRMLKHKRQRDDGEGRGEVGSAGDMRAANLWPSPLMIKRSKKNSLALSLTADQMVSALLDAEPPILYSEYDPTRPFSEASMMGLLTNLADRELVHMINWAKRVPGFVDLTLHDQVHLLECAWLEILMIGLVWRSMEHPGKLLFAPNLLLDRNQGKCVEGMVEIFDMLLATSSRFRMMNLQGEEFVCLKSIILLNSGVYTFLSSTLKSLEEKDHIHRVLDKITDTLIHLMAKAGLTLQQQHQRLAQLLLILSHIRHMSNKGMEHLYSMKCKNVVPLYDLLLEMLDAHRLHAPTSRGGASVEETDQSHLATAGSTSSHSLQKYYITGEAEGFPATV

DNA topoisomerase = DNA topoisomerase (Yersinia pestis, UniProt A0A2S9PM60); test: Yersinia topoisomerase I cleavage product accumulation – biochemical, cherry-pick, dose response (AID 588525)
Sequence of DNA topoisomerase (A0A2S9PM60 whole entry): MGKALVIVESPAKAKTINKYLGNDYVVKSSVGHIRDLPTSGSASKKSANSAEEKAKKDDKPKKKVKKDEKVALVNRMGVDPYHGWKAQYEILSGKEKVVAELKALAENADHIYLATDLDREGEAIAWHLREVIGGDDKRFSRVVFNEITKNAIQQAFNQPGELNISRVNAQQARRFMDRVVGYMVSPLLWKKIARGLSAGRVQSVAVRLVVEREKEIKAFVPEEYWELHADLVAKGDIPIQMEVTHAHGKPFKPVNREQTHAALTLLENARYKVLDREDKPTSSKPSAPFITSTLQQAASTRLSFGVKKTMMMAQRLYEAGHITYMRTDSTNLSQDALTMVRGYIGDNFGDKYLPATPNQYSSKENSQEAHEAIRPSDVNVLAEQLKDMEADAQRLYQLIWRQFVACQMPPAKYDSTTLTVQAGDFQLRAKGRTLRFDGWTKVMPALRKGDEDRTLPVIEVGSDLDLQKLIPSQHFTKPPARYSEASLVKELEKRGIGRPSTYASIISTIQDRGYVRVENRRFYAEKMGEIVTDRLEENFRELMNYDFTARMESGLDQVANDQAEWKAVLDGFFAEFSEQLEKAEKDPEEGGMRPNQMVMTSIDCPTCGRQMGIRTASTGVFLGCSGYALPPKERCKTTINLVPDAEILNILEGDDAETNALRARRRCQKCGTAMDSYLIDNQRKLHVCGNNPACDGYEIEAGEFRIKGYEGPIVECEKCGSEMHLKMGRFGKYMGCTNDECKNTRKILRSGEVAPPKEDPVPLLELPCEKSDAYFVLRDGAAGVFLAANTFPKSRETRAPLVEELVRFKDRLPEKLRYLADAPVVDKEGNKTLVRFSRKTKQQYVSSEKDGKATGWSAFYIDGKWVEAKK

[13] = biological target: T4, Neuropeptide Y receptor type 1 (Homo sapiens, UniProt P25929); test: Fluorescence-based counterscreen for potentiators or agonists of NPY-Y2: cell-based high-throughput dose response assay for potentiators or agonists of NPY-Y1.; type: functional
T4 sequence (P25929 whole entry): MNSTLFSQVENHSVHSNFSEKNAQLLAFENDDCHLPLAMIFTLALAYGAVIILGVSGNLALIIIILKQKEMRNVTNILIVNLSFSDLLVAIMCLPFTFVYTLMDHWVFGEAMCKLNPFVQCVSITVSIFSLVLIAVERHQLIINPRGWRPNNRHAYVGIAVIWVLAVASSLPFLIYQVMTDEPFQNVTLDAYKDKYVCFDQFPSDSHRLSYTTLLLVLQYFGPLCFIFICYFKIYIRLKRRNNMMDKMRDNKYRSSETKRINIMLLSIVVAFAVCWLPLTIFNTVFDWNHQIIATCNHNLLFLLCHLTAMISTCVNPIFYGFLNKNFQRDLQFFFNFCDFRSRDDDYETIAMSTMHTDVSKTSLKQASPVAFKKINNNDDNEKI

HEK293 = test: Fluorescence-based counterscreen for potentiators or agonists of NPY-Y2: cell-based high-throughput dose response assay to identify inhibitors of cyclic nucleotide gated ion channel (CNGC) activity. In this assay, the parental HEK293 cell line transfected with a cyclic-nucleotide gated ion channel (CNGC)-based cAMP sensor is used to measure inhibition of isoproterenol-induced CNGC activity by test compound.; type: functional; settings: Homo sapiens;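 also: stimulus is 1 µM isoproterenol at EC100 plus PDE inhibitor Ro 20-1724 at 25 µM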
[14] = biological target: T5, Neuropeptide Y receptor type 2 (Homo sapiens, UniProt P49146); test: Fluorescence-based cell-based high-throughput dose response assay for agonists of NPY-Y2. [Related pubchem assays: 1703 (Screening assay (CNGC inhibitors).), 1359 (Screening assay (NPY-Y2 potentiators or agonists).), 1304 (Screening assay (NPY-Y1 potentiators or agonists).), 1710 (Screening assay (NPY-Y2 agonists).), 1791 (Summary AID.)]; type: functional
T5 sequence (P49146 whole entry): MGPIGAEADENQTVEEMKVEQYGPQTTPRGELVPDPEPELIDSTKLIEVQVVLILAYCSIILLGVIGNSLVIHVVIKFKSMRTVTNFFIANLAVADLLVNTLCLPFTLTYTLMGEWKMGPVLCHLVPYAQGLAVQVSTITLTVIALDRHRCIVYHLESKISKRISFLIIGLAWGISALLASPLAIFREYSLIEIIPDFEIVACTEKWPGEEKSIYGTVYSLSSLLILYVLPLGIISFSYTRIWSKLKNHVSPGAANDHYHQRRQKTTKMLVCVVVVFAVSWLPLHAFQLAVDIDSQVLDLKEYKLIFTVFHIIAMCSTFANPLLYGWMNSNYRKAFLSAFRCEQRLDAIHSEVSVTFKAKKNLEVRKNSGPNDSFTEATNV

[15] = biological target: T5, Neuropeptide Y receptor type 2; test: Fluorescence-based cell-based high-throughput dose response assay for potentiators or agonists of NPY-Y2. [Related pubchem assays: 1539 (Screening assay (NPY-Y2 potentiators or agonists).), 1703 (Screening assay (CNGC inhibitors).), 1359 (Screening assay (NPY-Y2 potentiators or agonists).), 1304 (Screening assay (NPY-Y1 potentiators or agonists).) …; type: functional
[16] = biological target: T4, Neuropeptide Y receptor type 1; test: Fluorescence-based counterscreen for agonists of NPY-Y2: cell-based high-throughput dose response assay for agonists of NPY-Y1.; type: functional

With `COc1ccc2nc(O)c(-c3nnn(-c4ccc(Cl)c(Cl)c4)n3)cc2c1` the CC50 [1] was > 50 µM (active), the IC50 (Bcl-2-related protein A1 [2]) was > 100 µM (not active) and the IC50 (Bcl-2-related protein A1 [3]) was > 100 µM (not active).
For `O=[N+]([O-])c1ccc2c(c1)-c1ccccc1C2=NO`, the AC50 [4] was 8.4 µM (active) and the AC50 [5] was 3.93 µM (active).
With `O=C(Nc1nc2ccccc2[nH]1)c1cccc([N+](=O)[O-])c1` the IC50 [6] was > 100 µM (active) and the IC50 (cells) was 4.91 µM (active).
For `CCOC(=O)c1c(C)oc2c1c1c(c3ccccc32)OCN(Cc2ccccn2)C1`, the CC50 [1] was 40.2 µM (active), the EC50 [7] was 1.87 µM (active) and the EC50 [8] was 12.9 µM (active). The EC50 (H4) was 0.816 µM (active), the IC50 [9] was > 50 µM (not active) and the IC50 [10] was > 50 µM (not active).
In the case of `C[C@H]1CCCC(=O)CCC/C=C/c2cc(O)cc(O)c2C(=O)O1` [ZEARALENONE], the IC50 (Heat shock protein HSP90) is reported as 2.402 µM, the IC50 [11] is reported as 6.92 µM (active) and the AC50 [12] is reported as 39.8 µM (inconclusive) and 56.2 µM (inconclusive).
In the case of `CCc1ccc(Nc2nc(N)nc(CSc3nnnn3-c3ccccc3)n2)cc1`, the EC50 (Estrogen receptor) is reported as 4.76 µM (active) and the AC50 (DNA topoisomerase) is reported as 6.16 µM (active).
In the case of `CCN(CC)CC(O)Cn1c2ccccc2c2ccccc21` (stereo not drawn), the EC50 [13] is reported as > 35.4 µM (not active), the EC50 (HEK293) is reported as 1.49 µM (active) and the EC50 [14] is reported as 29.6 µM (not active). The EC50 [15] was > 35.4 µM (not active) and the EC50 [16] was 12.5 µM (not active).

Reference: ChEMBL document CHEMBL1201862, “PubChem BioAssay data set” (2004)
